According to PubChem BioAssay AID330 (DTP/NCI, 2004):
Values joined by “and” are separate entries in the source; they are usually repeats but may differ in a detail not shown here. Equal entries are not always repeated. Inconclusive results and toxic doses are left out. Rule for the calls: active = survival T/C of 150% or more; inactive = T/C below 125% in these data.

Test system: P388 leukemia ip, CD2F1 mice, survival T/C
Assay: NCI In Vivo Anticancer Drug Screen. Data for tumor model P388 Leukemia (intraperitoneal) in CD2F1 (CDF1) mice
Settings: endpoint: median survival time, higher = longer survival
In short: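 Mice carrying the transplanted tumor received test compound or vehicle. Survival was recorded in each group, and the value is the treated-group measurement divided by that of the vehicle-treated control group.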

[1] = dose: 50.0 mg/kg/injection, schedule: Q01DX009 (ip), vehicle: Klucel (hydroxypropylcellulose) (HPC)
[2] = dose: 100.0 mg/kg/injection, schedule: Q01DX009 (ip), vehicle: Klucel (hydroxypropylcellulose) (HPC)
[3] = dose: 200.0 mg/kg/injection, schedule: Q01DX009 (ip), vehicle: Klucel (hydroxypropylcellulose) (HPC)
[4] = dose: 60.0 mg/kg/injection, schedule: Q01DX005 (ip), vehicle: Klucel (hydroxypropylcellulose) (HPC)
[5] = dose: 120.0 mg/kg/injection, schedule: Q01DX005 (ip), vehicle: Klucel (hydroxypropylcellulose) (HPC)
[6] = dose: 240.0 mg/kg/injection, schedule: Q01DX005 (ip), vehicle: Klucel (hydroxypropylcellulose) (HPC)
[7] = dose: 50.0 mg/kg/injection, schedule: Q01DX005 (ip), vehicle: Klucel (hydroxypropylcellulose) (HPC)
[8] = dose: 100.0 mg/kg/injection, schedule: Q01DX009 (ip), vehicle: saline with Tween-80
[9] = dose: 100.0 mg/kg/injection, schedule: Q04DX003 (ip), vehicle: saline with Tween-80
[10] = dose: 200.0 mg/kg/injection, schedule: Q04DX003 (ip), vehicle: saline with Tween-80
[11] = dose: 400.0 mg/kg/injection, schedule: Q04DX003 (ip), vehicle: saline with Tween-80
[12] = dose: 50.0 mg/kg/injection, schedule: Q01DX009 (ip), vehicle: saline with Tween-80
[13] = dose: 100.0 mg/kg/injection, schedule: Q04DX003 (ip), vehicle: saline
[14] = dose: 200.0 mg/kg/injection, schedule: Q04DX003 (ip), vehicle: saline

Measured: T/C

COc1cc2c(cc1OC)-c1c(O)c(OC)cc3c1C(C2)N(C)CC3 (stereo unspecified)
inactive: dose: 1.12 mg/kg/injection, schedule: Q01DX009 (ip), vehicle: Klucel (hydroxypropylcellulose) (HPC) 100 % of control | dose: 1.25 mg/kg/injection, schedule: Q01DX009 (ip), vehicle: Klucel (hydroxypropylcellulose) (HPC) 103 % of control | dose: 2.25 mg/kg/injection, schedule: Q01DX009 (ip), vehicle: Klucel (hydroxypropylcellulose) (HPC) 100 % of control and 103 % of control | dose: 2.5 mg/kg/injection, schedule: Q01DX009 (ip), vehicle: Klucel (hydroxypropylcellulose) (HPC) 91 % of control | dose: 4.5 mg/kg/injection, schedule: Q01DX009 (ip), vehicle: Klucel (hydroxypropylcellulose) (HPC) 103 % of control | dose: 5.0 mg/kg/injection, schedule: Q01DX009 (ip), vehicle: Klucel (hydroxypropylcellulose) (HPC) 97 % of control | dose: 9.0 mg/kg/injection, schedule: Q01DX009 (ip), vehicle: Klucel (hydroxypropylcellulose) (HPC) 110 % of control and 95 % of control | dose: 10.0 mg/kg/injection, schedule: Q01DX009 (ip), vehicle: Klucel (hydroxypropylcellulose) (HPC) 97 % of control | dose: 18.0 mg/kg/injection, schedule: Q01DX009 (ip), vehicle: Klucel (hydroxypropylcellulose) (HPC) 93 % of control

COc1cccc(C2C(C#N)C(=O)NC(=O)C2C#N)c1 (stereo unspecified)
inactive: [1] 102 % of control | [2] 100 % of control | [3] 99 % of control

CSc1nc(N)c(NS(=O)(=O)c2ccccc2)c(=O)[nH]1
inactive: [4] 92 % of control | [5] 91 % of control | [6] 90 % of control

C=CC(c1ccccc1)c1cc2c(cc1OCCC)OCO2 (stereo unspecified)
inactive: [7] 98 % of control | dose: 100.0 mg/kg/injection, schedule: Q01DX005 (ip), vehicle: Klucel (hydroxypropylcellulose) (HPC) 96 % of control | dose: 200.0 mg/kg/injection, schedule: Q01DX005 (ip), vehicle: Klucel (hydroxypropylcellulose) (HPC) 105 % of control

C[C@]12CCC(=O)C=C1CC[C@@H]1[C@@H]2C(=O)C[C@@]2(C)[C@H]1CC[C@]2(O)C(=O)C=O
inactive: dose: 12.5 mg/kg/injection, schedule: Q01DX009 (ip), vehicle: Klucel (hydroxypropylcellulose) (HPC) 111 % of control and 123 % of control | dose: 25.0 mg/kg/injection, schedule: Q01DX009 (ip), vehicle: Klucel (hydroxypropylcellulose) (HPC) 119 % of control | [1] 111 % of control and 120 % of control | [2] 102 % of control and 113 % of control

Cc1c2oc(=O)cc(-c3ccccc3)c2cc2c(=O)ccoc12
inactive: dose: 12.5 mg/kg/injection, schedule: Q01DX005 (ip), vehicle: saline with Tween-80 97 % of control | dose: 25.0 mg/kg/injection, schedule: Q01DX005 (ip), vehicle: saline with Tween-80 92 % of control | dose: 50.0 mg/kg/injection, schedule: Q01DX005 (ip), vehicle: saline with Tween-80 97 % of control | dose: 100.0 mg/kg/injection, schedule: Q01DX005 (ip), vehicle: saline with Tween-80 86 % of control | dose: 200.0 mg/kg/injection, schedule: Q01DX005 (ip), vehicle: saline with Tween-80 86 % of control

c1ccc2c3c([nH]c2c1)CCCC3
inactive: [1] 102 % of control | [2] 103 % of control | [3] 111 % of control

Clc1n[nH]c(Cl)n1
inactive: [8] 95 % of control

FC(F)(F)c1nc(Cc2ccccc2)c(C(F)(F)F)o1
inactive: [9] 93 % of control | [10] 93 % of control | [11] 95 % of control

O=S(/N=C/c1ccccc1)c1ccc(Cl)cc1 (stereo unspecified)
inactive: [12] 96 % of control | [8] 89 % of control

CCCCCCC(C/C=C\CCCCCCCC(=O)OC)OC(C)=O (stereo unspecified)
inactive: [9] 95 % of control | [10] 100 % of control | [11] 104 % of control

O=C(O)c1c[nH]c2cc(OCCOc3ccc(F)cc3)ccc2c1=O
inactive: [13] 105 % of control | [14] 105 % of control | dose: 400.0 mg/kg/injection, schedule: Q04DX003 (ip), vehicle: saline 104 % of control

CNc1ccc(N=Nc2ccncc2C)cc1C
inactive: dose: 6.25 mg/kg/injection, schedule: Q01DX009 (ip), vehicle: DMSO 89 % of control | dose: 12.5 mg/kg/injection, schedule: Q01DX009 (ip), vehicle: DMSO 88 % of control | dose: 25.0 mg/kg/injection, schedule: Q01DX009 (ip), vehicle: DMSO 87 % of control

COSc1ccc(C)cc1
inactive: [13] 108 % of control | [14] 100 % of control

CCSc1nc(Cl)cc(Sc2nc(N)nc3nc[nH]c23)n1
inactive: dose: 12.0 mg/kg/injection, schedule: Q01DX009 (ip), vehicle: saline with Tween-80 90 % of control | dose: 18.0 mg/kg/injection, schedule: Q01DX009 (ip), vehicle: saline with Tween-80 90 % of control | dose: 26.0 mg/kg/injection, schedule: Q01DX009 (ip), vehicle: saline with Tween-80 100 % of control | dose: 40.0 mg/kg/injection, schedule: Q01DX009 (ip), vehicle: saline with Tween-80 104 % of control | dose: 60.0 mg/kg/injection, schedule: Q01DX009 (ip), vehicle: saline with Tween-80 100 % of control | dose: 88.0 mg/kg/injection, schedule: Q01DX009 (ip), vehicle: saline with Tween-80 90 % of control | dose: 132.0 mg/kg/injection, schedule: Q01DX009 (ip), vehicle: saline with Tween-80 86 % of control

CC(=O)O[C@H]1[C@@H](C(C)C)CC[C@@]2(C)[C@H](Br)CC[C@@](C)(O)[C@H]12
inactive: dose: 20.0 mg/kg/injection, schedule: Q01DX005 (ip), vehicle: other 105 % of control | dose: 40.0 mg/kg/injection, schedule: Q01DX005 (ip), vehicle: other 105 % of control | dose: 80.0 mg/kg/injection, schedule: Q01DX005 (ip), vehicle: other 105 % of control

CC(C)=CCSc1ccccc1
inactive: dose: 100.0 mg/kg/injection, schedule: Q04DX002 (ip), vehicle: Klucel (hydroxypropylcellulose) (HPC) 104 % of control | dose: 200.0 mg/kg/injection, schedule: Q04DX002 (ip), vehicle: Klucel (hydroxypropylcellulose) (HPC) 106 % of control | dose: 400.0 mg/kg/injection, schedule: Q04DX002 (ip), vehicle: Klucel (hydroxypropylcellulose) (HPC) 109 % of control

CCN1/C(=C\C2=C([O-])C(=C/c3sc4ccccc4[n+]3CC)/C2=O)Sc2ccccc21
inactive: [4] 103 % of control | [5] 119 % of control | [6] 86 % of control

O=C1c2ccccc2C=c2c1nc1c(O)ccc3cccc2c31
inactive: dose: 6.25 mg/kg/injection, schedule: Q01DX005 (ip), vehicle: Klucel (hydroxypropylcellulose) (HPC) 101 % of control | dose: 12.5 mg/kg/injection, schedule: Q01DX005 (ip), vehicle: Klucel (hydroxypropylcellulose) (HPC) 100 % of control | dose: 25.0 mg/kg/injection, schedule: Q01DX005 (ip), vehicle: Klucel (hydroxypropylcellulose) (HPC) 111 % of control | [7] 97 % of control

O=C(Nc1cc(-c2ccccc2)[nH]n1)c1ccc(Cl)cc1
inactive: dose: 60.0 mg/kg/injection, schedule: Q01DX005 (ip), vehicle: saline with Tween-80 102 % of control | dose: 120.0 mg/kg/injection, schedule: Q01DX005 (ip), vehicle: saline with Tween-80 93 % of control | dose: 240.0 mg/kg/injection, schedule: Q01DX005 (ip), vehicle: saline with Tween-80 93 % of control

CN(C)c1ccc(N/C=C/C(=O)c2ccccc2O)cc1
inactive: dose: 100.0 mg/kg/injection, schedule: Q01DX001 (ip), vehicle: other 103 % of control | dose: 200.0 mg/kg/injection, schedule: Q01DX001 (ip), vehicle: other 100 % of control | dose: 400.0 mg/kg/injection, schedule: Q01DX001 (ip), vehicle: other 96 % of control

CC(=NC(C)C)Nc1ccc(Cl)cc1
inactive: dose: 25.0 mg/kg/injection, schedule: Q01DX009 (ip), vehicle: saline with Tween-80 107 % of control | [12] 105 % of control | [8] 92 % of control
